Laboratory results from ChEMBL document CHEMBL6103643, “Total Synthesis of (-)- and (+)-Talaroenamine B and Diphenylene Derivatives” (J Nat Prod, 2025).
Structures can show the parent of a compound that is named as a salt.

Legend:
[1] = target: Acetylcholinesterase (Homo sapiens, UniProt P22303); test: Inhibition of AChE (unknown origin) by Ellman's method
[2] = test system: K562; test: Cytotoxicity against human K562 cells assessed as inhibition of cell growth by MTT assay; type: functional, cell-based
[3] = Cytotoxicity against human L02 cells assessed as inhibition of cell growth by SRB assay; type: toxicity, cell-based
[4] = test system: ASPC1; test: Cytotoxicity against human ASPC1 cells assessed as inhibition of cell growth by SRB assay; type: functional, cell-based
[5] = Cytotoxicity against human Cisplatin/etoposide-resistant NCI-H446/EP cells assessed as inhibition of cell growth by SRB assay; type: functional, cell-based
[6] = test system: NCI-H446; test: Cytotoxicity against human NCI-H446 cells assessed as inhibition of cell growth by SRB assay; type: functional, cell-based
[7] = Selectivity index, ratio of IC50 for cytotoxicity against human L02 cells to IC50 for cytotoxicity against human K562 cells; type: toxicity, cell-based; conditions: L02 cells and K562 cells, read-out: Ratio IC50

Chain of Acetylcholinesterase (P22303 whole entry): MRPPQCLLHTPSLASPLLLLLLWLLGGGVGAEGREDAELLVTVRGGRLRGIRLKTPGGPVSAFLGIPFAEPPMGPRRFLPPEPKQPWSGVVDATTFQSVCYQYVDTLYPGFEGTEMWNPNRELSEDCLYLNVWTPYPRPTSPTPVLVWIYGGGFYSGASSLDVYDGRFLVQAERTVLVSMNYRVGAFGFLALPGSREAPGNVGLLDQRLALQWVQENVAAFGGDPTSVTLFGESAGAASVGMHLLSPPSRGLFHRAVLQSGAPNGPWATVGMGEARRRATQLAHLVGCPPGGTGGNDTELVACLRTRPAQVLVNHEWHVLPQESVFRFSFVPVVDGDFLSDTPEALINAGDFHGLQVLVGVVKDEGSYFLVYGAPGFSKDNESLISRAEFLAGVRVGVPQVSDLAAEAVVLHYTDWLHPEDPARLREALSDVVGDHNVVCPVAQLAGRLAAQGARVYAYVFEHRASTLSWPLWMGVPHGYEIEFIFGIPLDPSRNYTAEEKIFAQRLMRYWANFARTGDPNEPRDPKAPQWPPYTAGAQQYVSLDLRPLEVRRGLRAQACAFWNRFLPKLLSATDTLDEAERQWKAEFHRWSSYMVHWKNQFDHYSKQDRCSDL

Question: For CC1=CC(=O)[C@@](C)(O)C(=O)/C1=C\Nc1ccccc1, which IC50 [1] is on record?
Answer: > 100 µM

Question: And the IC50 [2]?
Answer: > 30 µM

Question: What about the IC50 [3] of the same compound?
Answer: > 30 µM

Question: And the IC50 [4]?
Answer: > 30 µM

Question: And the IC50 [5]?
Answer: > 30 µM

Question: What about the IC50 [6] of the same compound?
Answer: > 30 µM

Question: Which IC50 [1] does the source give for CC1=CC(=O)[C@](C)(O)C(=O)/C1=C\Nc1ccc(Oc2ccc(C#N)cc2)cc1 here?
Answer: 24.4 µM

Question: What about the IC50 [2] of the same compound?
Answer: > 30 µM

Question: What about the IC50 [3] of the same compound?
Answer: > 30 µM

Question: And the IC50 [4]?
Answer: > 30 µM

Question: And the IC50 [5]?
Answer: > 30 µM

Question: And the IC50 [6]?
Answer: > 30 µM

Question: What does the source list for CC1=CC(=O)[C@](C)(O)C(=O)/C1=C\Nc1ccc(Oc2ccc(C)cc2)cc1?
Answer: IC50 [1]: > 100 µM; IC50 [2]: > 30 µM; IC50 [3]: 19.8 µM; IC50 [4]: > 30 µM; IC50 [5]: > 30 µM; IC50 [6]: > 30 µM

Question: For CC1=CC(=O)[C@@](C)(O)C(=O)/C1=C\Nc1ccc(Oc2ccc(C#N)cc2)cc1, which IC50 [1] is on record?
Answer: 4.7 µM

Question: And the IC50 [2]?
Answer: > 30 µM

Question: What about the IC50 [3] of the same compound?
Answer: > 30 µM

Question: And the IC50 [4]?
Answer: > 30 µM

Question: What about the IC50 [5] of the same compound?
Answer: > 30 µM

Question: What about the IC50 [6] of the same compound?
Answer: > 30 µM

Question: What does the source list for CC1=CC(=O)[C@@](C)(O)C(=O)/C1=C\Nc1ccc(Oc2ccc(Cl)cc2)cc1?
Answer: IC50 [1]: > 100 µM; IC50 [2]: > 30 µM; IC50 [3]: > 30 µM; IC50 [4]: > 30 µM; IC50 [5]: > 30 µM; IC50 [6]: > 30 µM

Question: What does the source list for CC1=CC(=O)[C@](C)(O)C(=O)/C1=C\Nc1ccc(Oc2ccc([N+](=O)[O-])cc2)cc1?
Answer: IC50 [1]: 68.1 µM; IC50 [2]: > 30 µM; IC50 [3]: > 30 µM; IC50 [4]: > 30 µM; IC50 [5]: > 30 µM; IC50 [6]: > 30 µM

Question: Which results are given for CC1=CC(=O)[C@](C)(O)C(=O)/C1=C\Nc1ccc(Oc2ccc(Cl)cc2)cc1?
Answer: IC50 [1]: > 100 µM; IC50 [2]: 9.5 µM; IC50 [3]: 17 µM; IC50 [4]: > 30 µM; IC50 [5]: > 30 µM; IC50 [6]: > 30 µM; selectivity ratio [7]: 1.7

Question: Which IC50 [1] does the source give for CC1=CC(=O)[C@@](C)(O)C(=O)/C1=C\Nc1ccc(Oc2ccc([N+](=O)[O-])cc2)cc1 here?
Answer: > 100 µM

Question: What about the IC50 [2] of the same compound?
Answer: > 30 µM

Question: And the IC50 [3]?
Answer: > 30 µM

Question: And the IC50 [4]?
Answer: > 30 µM

Question: And the IC50 [5]?
Answer: > 30 µM

Question: And the IC50 [6]?
Answer: > 30 µM

Question: For CC1=CC(=O)[C@](C)(O)C(=O)/C1=C\Nc1ccc(Oc2cccc(F)c2)cc1, which IC50 [1] is on record?
Answer: > 100 µM

Question: What about the IC50 [2] of the same compound?
Answer: 15.5 µM

Question: What about the IC50 [3] of the same compound?
Answer: > 30 µM

Question: What about the IC50 [4] of the same compound?
Answer: > 30 µM

Question: And the IC50 [5]?
Answer: > 30 µM

Question: What about the IC50 [6] of the same compound?
Answer: > 30 µM

Question: What about the selectivity ratio [7] of the same compound?
Answer: > 1.9

Question: With CC1=CC(=O)[C@@](C)(O)C(=O)/C1=C\Nc1ccc(Oc2cccc(F)c2)cc1 as the compound, how does the IC50 [1] read?
Answer: > 100 µM

Question: What about the IC50 [2] of the same compound?
Answer: > 30 µM

Question: And the IC50 [3]?
Answer: > 30 µM

Question: What about the IC50 [4] of the same compound?
Answer: > 30 µM

Question: What about the IC50 [5] of the same compound?
Answer: > 30 µM

Question: And the IC50 [6]?
Answer: > 30 µM

Question: Which IC50 [1] does the source give for CC1=CC(=O)[C@](C)(O)C(=O)/C1=C\Nc1ccccc1 here?
Answer: > 100 µM

Question: And the IC50 [2]?
Answer: > 30 µM

Question: What about the IC50 [3] of the same compound?
Answer: > 30 µM

Question: What about the IC50 [4] of the same compound?
Answer: > 30 µM

Question: What about the IC50 [5] of the same compound?
Answer: > 30 µM

Question: And the IC50 [6]?
Answer: > 30 µM

Question: For CC1=CC(=O)[C@](C)(O)C(=O)/C1=C\Nc1ccc(Cc2ccccc2)cc1, which IC50 [1] is on record?
Answer: 4.5 µM

Question: And the IC50 [2]?
Answer: 5.6 µM

Question: And the IC50 [3]?
Answer: 18.6 µM

Question: And the IC50 [4]?
Answer: > 30 µM

Question: And the IC50 [5]?
Answer: > 30 µM

Question: And the IC50 [6]?
Answer: > 30 µM

Question: What about the selectivity ratio [7] of the same compound?
Answer: 3.3

Question: With CC1=CC(=O)[C@@](C)(O)C(=O)/C1=C\Nc1ccc(Oc2ccc(C)cc2)cc1 as the compound, how does the IC50 [1] read?
Answer: > 100 µM

Question: What about the IC50 [2] of the same compound?
Answer: > 30 µM

Question: And the IC50 [3]?
Answer: > 30 µM

Question: And the IC50 [4]?
Answer: > 30 µM

Question: And the IC50 [5]?
Answer: > 30 µM

Question: And the IC50 [6]?
Answer: > 30 µM

Question: With CC1=CC(=O)[C@@](C)(O)C(=O)/C1=C\Nc1ccc(Cc2ccccc2)cc1 as the compound, how does the IC50 [1] read?
Answer: > 100 µM

Question: And the IC50 [2]?
Answer: > 30 µM

Question: And the IC50 [3]?
Answer: > 30 µM

Question: What about the IC50 [4] of the same compound?
Answer: > 30 µM

Question: And the IC50 [5]?
Answer: > 30 µM

Question: And the IC50 [6]?
Answer: > 30 µM

Question: For COc1cccc2c1C(=O)c1c(O)c3c(c(O)c1C2=O)C[C@@](O)(C(=O)CO)C[C@@H]3O[C@H]1C[C@H](N)[C@H](O)[C@H](C)O1 [DOXORUBICIN HYDROCHLORIDE], which IC50 [4] is on record?
Answer: 15.1 µM

Question: What about the IC50 [5] of the same compound?
Answer: 0.2 µM

Question: What about the IC50 [6] of the same compound?
Answer: 0.3 µM
